Experiments:
ΔF508-CFTR [1] = target: T1, ΔF508-CFTR (Homo sapiens, UniProt P13569, DEL508-508); assay: CFTR cell surface levels using HRP-tagged ΔF508-CFTR expressing CFBE cells, intrinsic corrector capacity; assay type: cell-based; conditions: for EC50: read-out: EC50
T1 construct: host or cells: CFBE41o-, doxycycline-inducible
Procedure, shortened: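 Here the cells express ΔF508-CFTR with horseradish peroxidase inserted in extracellular loop 4, so only rescued channel at the surface gives luminescent signal. Compounds act on their own, 20 h at the reduced temperature of 33 °C; values are percent activity relative to DMSO and a 3 μM corrector.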

ΔF508-CFTR [2] = target: T1, ΔF508-CFTR; assay: CFTR cell surface levels using HRP-tagged ΔF508-CFTR expressing CFBE cells, in the presence of a co-corrector; assay type: cell-based; conditions: HRP-tagged ΔF508-CFTR expressing CFBE cells, in the presence of 3 μM co-corrector; for EC50: read-out: EC50
Procedure, shortened: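 Cells were seeded with 0.5 μg/mL doxycycline and held 68 h at 37 °C. Test compounds plus 3 μM co-corrector (final 0.1% DMSO) were then added for 20 h at 33 °C. Washed cells received HRP substrate, and luminescence was normalized between DMSO and 3 μM co-corrector controls.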

[3] = HRP-tagged ΔF508-CFTR CFBE41o- cells, compounds alone (intrinsic corrector capacity), 20 hours at 33° C., positive control 3 μM corrector
[4] = HRP-tagged ΔF508-CFTR CFBE41o- cells, compounds alone (intrinsic corrector capacity), 20 hours at 33° C.
[5] = HRP-tagged ΔF508-CFTR expressing CFBE cells, intrinsic corrector capacity (no co-corrector), 33° C., 20 hours

T1 sequence (P13569 with tags, fused parts or gaps DEL508-508): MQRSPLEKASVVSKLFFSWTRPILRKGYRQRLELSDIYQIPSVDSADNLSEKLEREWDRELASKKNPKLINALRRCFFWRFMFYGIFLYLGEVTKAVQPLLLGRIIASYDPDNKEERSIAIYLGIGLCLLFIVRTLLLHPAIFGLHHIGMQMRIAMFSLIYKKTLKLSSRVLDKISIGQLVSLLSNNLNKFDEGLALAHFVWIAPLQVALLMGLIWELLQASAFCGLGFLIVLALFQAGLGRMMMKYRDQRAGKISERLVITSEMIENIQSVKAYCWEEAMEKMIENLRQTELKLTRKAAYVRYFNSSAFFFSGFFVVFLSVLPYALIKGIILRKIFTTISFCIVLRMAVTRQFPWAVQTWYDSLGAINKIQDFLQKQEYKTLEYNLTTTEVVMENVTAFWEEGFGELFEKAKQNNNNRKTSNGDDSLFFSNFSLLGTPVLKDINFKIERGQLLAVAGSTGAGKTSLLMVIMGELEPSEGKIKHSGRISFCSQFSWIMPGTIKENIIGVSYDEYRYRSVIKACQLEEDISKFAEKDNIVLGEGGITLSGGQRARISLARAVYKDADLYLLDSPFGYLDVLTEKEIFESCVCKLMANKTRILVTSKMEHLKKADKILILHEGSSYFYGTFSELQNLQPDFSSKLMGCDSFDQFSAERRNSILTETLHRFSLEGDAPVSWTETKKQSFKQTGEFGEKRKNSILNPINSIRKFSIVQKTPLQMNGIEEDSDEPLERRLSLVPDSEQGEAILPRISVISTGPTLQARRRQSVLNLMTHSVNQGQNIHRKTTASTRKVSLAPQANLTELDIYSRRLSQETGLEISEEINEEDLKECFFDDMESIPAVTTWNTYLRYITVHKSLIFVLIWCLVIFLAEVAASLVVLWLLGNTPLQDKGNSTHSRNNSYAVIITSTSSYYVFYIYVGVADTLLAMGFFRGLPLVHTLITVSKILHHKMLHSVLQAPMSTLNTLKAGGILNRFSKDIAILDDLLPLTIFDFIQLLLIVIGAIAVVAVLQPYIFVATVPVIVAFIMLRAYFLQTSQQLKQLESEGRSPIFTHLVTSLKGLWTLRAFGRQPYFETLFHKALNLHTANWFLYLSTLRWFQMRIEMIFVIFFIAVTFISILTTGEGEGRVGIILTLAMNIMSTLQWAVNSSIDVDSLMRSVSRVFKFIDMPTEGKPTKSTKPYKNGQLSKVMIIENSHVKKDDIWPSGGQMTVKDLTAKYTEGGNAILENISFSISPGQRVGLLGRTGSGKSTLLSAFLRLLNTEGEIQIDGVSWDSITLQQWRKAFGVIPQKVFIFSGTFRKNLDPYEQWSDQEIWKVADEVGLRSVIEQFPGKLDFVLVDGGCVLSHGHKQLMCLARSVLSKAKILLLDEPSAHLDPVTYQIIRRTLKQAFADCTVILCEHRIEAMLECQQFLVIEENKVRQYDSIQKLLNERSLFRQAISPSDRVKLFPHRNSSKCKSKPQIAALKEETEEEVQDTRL

Row | SMILES | % Activation (ΔF508-CFTR [1]; [3]) [%] | EC50 (ΔF508-CFTR [1]; [4]) [nM] | % Activation (ΔF508-CFTR [2]) [%] | EC50 (ΔF508-CFTR [2]) [nM] | % Activation (ΔF508-CFTR [1]; [5]) [%] | EC50 (ΔF508-CFTR [1]; [5]) [nM]
1 | Cc1nn(-c2ccccc2)c2nc(C(=O)O)cc(OCC3(C)COC3)c12 [compound 375, 3-methyl-4-[(3-methyloxetan-3-yl)methoxy]-1-phenyl-1H-pyrazolo[3,4-b]pyridine-6-carboxylic acid] | 36.645 | 3340 | 184.1 | 1670 | – | –
2 | COC1CCC(Oc2cc(C(=O)O)nc3c2c(C)nn3-c2ccccc2)CC1 (stereo not drawn) [compound 376, 4-[(4-methoxycyclohexyl)oxy]-3-methyl-1-phenyl-1H-pyrazolo[3,4-b]pyridine-6-carboxylic acid] | 109.7 | 1610 | 289.4 | 1140 | – | –
3 | Cc1nn(-c2ccccc2)c2nc(C(=O)O)cc(OCC(F)C3CCOCC3)c12 (stereo not drawn) [compound 377, 4-[2-fluoro-2-(oxan-4-yl)ethoxy]-3-methyl-1-phenyl-1H-pyrazolo[3,4-b]pyridine-6-carboxylic acid] | 95.185 | 1670 | 295.65 | 1500 | – | –
4 | Cc1nn(-c2ccccc2)c2nc(C(=O)O)cc(OCC3(F)CCN(C)C3)c12 (stereo not drawn) [compound 378, 4-[(3-fluoro-1-methylpyrrolidin-3-yl)methoxy]-3-methyl-1-phenyl-1H-pyrazolo[3,4-b]pyridine-6-carboxylic acid] | 14.56 | 5010 | 140.5 | 3340 | – | –
5 | Cc1nn(-c2ccccc2)c2nc(C(=O)O)cc(OC[C@@H](F)C3CCN(C)CC3)c12 [compound 379, 4-[(2S)-2-fluoro-2-(1-methylpiperidin-4-yl)ethoxy]-3-methyl-1-phenyl-1H-pyrazolo[3,4-b]pyridine-6-carboxylic acid] | 4.874 | 5010 | 128.5 | 5010 | – | –
6 | Cc1nn(-c2ccccc2)c2nc(C(=O)O)cc(OC[C@H](F)C3CCN(C)CC3)c12 [compound 380, 4-[(2R)-2-fluoro-2-(1-methylpiperidin-4-yl)ethoxy]-3-methyl-1-phenyl-1H-pyrazolo[3,4-b]pyridine-6-carboxylic acid] | 14.735 | 5010 | 141.7 | 950 | – | –
7 | Cc1nn(-c2ccccc2)c2nc(C(=O)O)cc(OCC3(F)CCCN(C4COC4)C3)c12 (stereo not drawn) [compound 381, 4-{[3-fluoro-1-(oxetan-3-yl)piperidin-3-yl]methoxy}-3-methyl-1-phenyl-1H-pyrazolo[3,4-b]pyridine-6-carboxylic acid] | 17.695 | 5010 | 182.9 | 1670 | – | –
8 | Cc1nn(-c2ccccc2)c2nc(C(=O)O)cc(OCC3CCC(F)(F)C3)c12 (stereo not drawn) [compound 382, 4-[(3,3-difluorocyclopentyl)methoxy]-3-methyl-1-phenyl-1H-pyrazolo[3,4-b]pyridine-6-carboxylic acid] | 80.645 | 1670 | 268.1 | 1410 | – | –
9 | Cc1nn(-c2ccccc2)c2nc(C(=O)O)cc(OCC(=O)N3CCCCC3)c12 [compound 383, 3-methyl-4-[2-oxo-2-(piperidin-1-yl)ethoxy]-1-phenyl-1H-pyrazolo[3,4-b]pyridine-6-carboxylic acid] | 16.587 | 5010 | 129.7 | 5010 | – | –
10 | Cc1nn(-c2ccccc2)c2nc(C(=O)O)cc(OCC3(S(C)(=O)=O)CCC3)c12 [compound 384, 4-{[1-(methanesulfonyl)cyclobutyl]methoxy}-3-methyl-1-phenyl-1H-pyrazolo[3,4-b]pyridine-6-carboxylic acid] | 8.1785 | 5010 | 123 | 5010 | – | –
11 | Cc1nn(-c2ccccc2)c2nc(C(=O)O)cc(OCCN(CC(C)C)C3CC3)c12 [compound 385, 4-{2-[cyclopropyl(2-methylpropyl)amino]ethoxy}-3-methyl-1-phenyl-1H-pyrazolo[3,4-b]pyridine-6-carboxylic acid] | 54.89 | 1670 | 238.75 | 1670 | – | –
12 | Cc1nn(-c2ccccc2)c2nc(C(=O)O)cc(OCC3(C)CC(F)(F)C3)c12 [compound 386, 4-[(3,3-difluoro-1-methylcyclobutyl)methoxy]-3-methyl-1-phenyl-1H-pyrazolo[3,4-b]pyridine-6-carboxylic acid] | 64.285 | 1310 | 250.65 | 1440 | – | –
13 | Cc1nn(-c2ccccc2)c2nc(C(=O)O)cc(OCC3(CF)CC3)c12 [compound 387, 4-{[1-(fluoromethyl)cyclopropyl]methoxy}-3-methyl-1-phenyl-1H-pyrazolo[3,4-b]pyridine-6-carboxylic acid] | 65.365 | 1670 | 224.5 | 1670 | – | –
14 | COCCC1(COc2cc(C(=O)O)nc3c2c(C)nn3-c2ccccc2)CC1 [compound 388, 4-{[1-(2-methoxyethyl)cyclopropyl]methoxy}-3-methyl-1-phenyl-1H-pyrazolo[3,4-b]pyridine-6-carboxylic acid] | 50.555 | 1670 | 171.6 | 1460 | – | –
15 | Cc1nn(-c2ccccc2)c2nc(C(=O)O)cc(OCC3CCCC3(F)F)c12 (stereo not drawn) [compound 389, 4-[(2,2-difluorocyclopentyl)methoxy]-3-methyl-1-phenyl-1H-pyrazolo[3,4-b]pyridine-6-carboxylic acid] | 101.73 | 1670 | 280.6 | 1290 | – | –
16 | CC(C)Oc1nn(-c2ccccc2)c2nc(C(=O)O)cc(-c3ccc(N4CCOCC4)cc3)c12 [compound 390, 4-[4-(morpholin-4-yl)phenyl]-1-phenyl-3-[(propan-2-yl)oxy]-1H-pyrazolo[3,4-b]pyridine-6-carboxylic acid] | 177.8 | 585 | 362 | 272 | – | –
17 | COCC1CCN(c2cc(C(=O)O)nc3c2c(C(C)C)nn3-c2ccc(F)cc2)CC1 [compound 391, 1-(4-fluorophenyl)-4-[4-(methoxymethyl)piperidin-1-yl]-3-(propan-2-yl)-1H-pyrazolo[3,4-b]pyridine-6-carboxylic acid] | 306.23 | 590 | 528.7 | 374 | – | –
18 | CC(C)c1nn(-c2ccnc(N3CCCC3)c2)c2nc(C(=O)O)cc(-c3ccc(N4CCC(C#N)CC4)cc3)c12 [compound 392, 4-[4-(4-cyanopiperidin-1-yl)phenyl]-3-(propan-2-yl)-1-[2-(pyrrolidin-1-yl)pyridin-4-yl]-1H-pyrazolo[3,4-b]pyridine-6-carboxylic acid] | 302 | 345 | 519.35 | 323 | – | –
19 | COC1CCN(c2cc(C(=O)O)nc3c2c(C(C)C)nn3-c2ccc(F)cc2)CC1 [compound 393, 1-(4-fluorophenyl)-4-(4-methoxypiperidin-1-yl)-3-(propan-2-yl)-1H-pyrazolo[3,4-b]pyridine-6-carboxylic acid] | 258.8 | 558 | 454.3 | 314 | – | –
20 | CC(C)c1nn(-c2ccc(F)cc2)c2nc(C(=O)O)cc(N3CCC(CO)CC3)c12 [compound 394, 1-(4-fluorophenyl)-4-[4-(hydroxymethyl)piperidin-1-yl]-3-(propan-2-yl)-1H-pyrazolo[3,4-b]pyridine-6-carboxylic acid] | 235.1 | 1490 | 392.57 | 677 | – | –
21 | CCCCOC1CCN(c2cc(C(=O)O)nc3c2c(C(C)C)nn3-c2ccc(F)cc2)CC1 [compound 395, 4-(4-butoxypiperidin-1-yl)-1-(4-fluorophenyl)-3-(propan-2-yl)-1H-pyrazolo[3,4-b]pyridine-6-carboxylic acid] | – | – | 480.35 | 549 | 223.6 | 438
22 | CC(C)COC1CCN(c2cc(C(=O)O)nc3c2c(C(C)C)nn3-c2ccc(F)cc2)CC1 [compound 396, 1-(4-fluorophenyl)-4-[4-(2-methylpropoxy)piperidin-1-yl]-3-(propan-2-yl)-1H-pyrazolo[3,4-b]pyridine-6-carboxylic acid] | – | – | 409.8 | 301 | 209.3 | 403
23 | COC1(C)CCN(c2cc(C(=O)O)nc3c2c(C(C)C)nn3-c2ccc(F)cc2)CC1 [compound 397, 1-(4-fluorophenyl)-4-(4-methoxy-4-methylpiperidin-1-yl)-3-(propan-2-yl)-1H-pyrazolo[3,4-b]pyridine-6-carboxylic acid] | – | – | 217.3 | 299 | 73.11 | 645
24 | CC(C)c1nn(-c2ccc(F)cc2)c2nc(C(=O)O)cc(N3CCC4(CCO4)CC3)c12 [compound 398, 1-(4-fluorophenyl)-4-(1-oxa-7-azaspiro[3.5]nonan-7-yl)-3-(propan-2-yl)-1H-pyrazolo[3,4-b]pyridine-6-carboxylic acid] | – | – | 275.7 | 737 | 96.49 | 1290

Source: US9796711B2, “Substituted pyrazolo[3,4-b]pyridin-6-carboxylic acids and method of use” (AbbVie S.àr.l., priority 2015, dated 2017)
